{
  "source": "patent US20250282799A1",
  "about": "“SUBSTITUTED PYRIDO[4,3-d]PYRIMIDINES AS KRAS MODULATORS” (Alterome Therapeutics, Inc., priority 2023, published 2025)",
  "data": [
    {"tested_on": "KRAS G12V dependent lung adenocarcinoma cell line, NCI-H441", "experiment": "Cellular pERK (Thr202/Tyr204) FRET/HTRF assay", "format": "cell-based", "settings": "Homo sapiens, NCI-H441, cellular pERK (Thr202/Tyr204) HTRF, NCI-H441 cells", "method_in_brief": "(§1)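 Adherent NCI-H441 cells, plated the previous night, receive test compound for one hour at 37 °C. They are then lysed with a buffer containing phosphatase inhibitors and incubated at room temperature with Eu3+-cryptate and d2 labelled anti-pERK antibodies. HTRF signal gives IC50 by curve fitting.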", "units": {"IC50": "nM"}, "values": [
      {"smiles": "[2H]C([2H])([2H])Oc1c(F)cc(F)c2cc(N)cc(-c3ncc4c(N5CCOC[C@H]6[C@H](F)[C@H]65)nc(OC[C@@]56CCCN5CC(=C)C6)nc4c3F)c12", "note": "[Example 192, 6,8-difluoro-4-(8-fluoro-4-((1S,7S,8S)-8-fluoro-5-oxa-2-azabicyclo[5.1.0]octan-2-yl)-2-(((S)-2-methylenetetrahydro-1H-pyrrolizin-7a(5H)-yl)methoxy)pyrido[4,3-d]pyrimidin-7-yl)-5-(methoxy-d3)naphthalen-2-amine]", "IC50": "< 50"},
      {"smiles": "[2H]C([2H])(Oc1nc(N2CCOC[C@H]3[C@H](F)[C@H]32)c2cnc(-c3cc(N)cc4ccc(F)c(C#C)c34)c(F)c2n1)[C@@]12CCCN1C[C@@H](C#N)C2", "note": "[Example 286, (2S,7aS)-7a-(((7-(3-amino-8-ethynyl-7-fluoronaphthalen-1-yl)-8-fluoro-4-((1S,7S,8S)-8-fluoro-5-oxa-2-azabicyclo[5.1.0]octan-2-yl)pyrido[4,3-d]pyrimidin-2-yl)oxy)methyl-d2)hexahydro-1H-pyrrolizine-2-carbonitrile]", "IC50": "< 50"},
      {"smiles": "[2H]C([2H])(Oc1nc(N2CCOC[C@H]3[C@H](F)[C@H]32)c2ccc(-c3cc(N)cc(C)c3C(F)(F)F)c(F)c2n1)[C@@]12CCCN1C[C@H](F)C2", "note": "[Example 180, 3-(8-fluoro-4-((1S,7S,8S)-8-fluoro-5-oxa-2-azabicyclo[5.1.0]octan-2-yl)-2-(((2R,7aS)-2-fluorotetrahydro-1H-pyrrolizin-7a(5H)-yl)methoxy-d2)quinazolin-7-yl)-5-methyl-4-(trifluoromethyl)aniline]", "IC50": "500 to 10000"},
      {"smiles": "[2H]C([2H])(Oc1nc(N2CCOC[C@H]3[C@H](F)[C@H]32)c2cnc(-c3cccc4ccc(Cl)c(C#C)c34)c(F)c2n1)[C@@]12CCCN1C[C@H](F)C2", "note": "[Example 318, (1S,7S,8S)-2-(7-(7-chloro-8-ethynylnaphthalen-1-yl)-8-fluoro-2-(((2R,7aS)-2-fluorotetrahydro-1H-pyrrolizin-7a(5H)-yl)methoxy-d2)pyrido[4,3-d]pyrimidin-4-yl)-8-fluoro-5-oxa-2-azabicyclo[5.1.0]octane]", "IC50": "< 50"},
      {"smiles": "[2H]C([2H])(F)Oc1c(F)ccc2cc(N)cc(-c3ncc4c(N5CCCC[C@H]6[C@H](F)[C@H]65)nc(OC[C@]56C/C(=C/F)CN5CCC65CC5)nc4c3F)c12", "note": "[Example 409, 6-fluoro-4-(8-fluoro-4-((1S,7R,8S)-8-fluoro-2-azabicyclo[5.1.0]octan-2-yl)-2-(((R,Z)-6′-(fluoromethylene)tetrahydrospiro [cyclopropane-1,1′-pyrrolizin]-7a′(5′H)-yl)methoxy)pyrido[4,3-d]pyrimidin-7-yl)-5-(fluoromethoxy-d2)naphthalen-2-amine]", "IC50": "< 50"},
      {"smiles": "C#Cc1c(F)ccc2cc(N)cc(-c3ncc4c(N5CCOC[C@H]6[C@H](F)[C@H]65)nc(OC[C@@]56CCCN5C[C@@]5(C[C@H]5F)C6)nc4c3F)c12", "note": "(single isomer, unassigned) [Example 253]", "IC50": "< 50"},
      {"smiles": "[2H]C([2H])(Oc1nc(N2CCOC[C@H]3[C@H](Cl)[C@H]32)c2cnc(-c3cccc4ccc(F)c(C#C)c34)c(F)c2n1)[C@@]12CCCN1C[C@H](F)C2", "note": "[Example 290, (1S,7S,8S)-8-chloro-2-(7-(8-ethynyl-7-fluoronaphthalen-1-yl)-8-fluoro-2-(((2R,7aS)-2-fluorotetrahydro-1H-pyrrolizin-7a(5H)-yl)methoxy-d2)pyrido[4,3-d]pyrimidin-4-yl)-5-oxa-2-azabicyclo[5.1.0]octane]", "IC50": "< 50"},
      {"smiles": "C#Cc1c(F)ccc2cc(O)cc(-c3ncc4c(N5CCOC[C@H]6[C@H](F)[C@H]65)nc(OC[C@@H]5CCCN5C)nc4c3F)c12", "note": "[Example 285, 5-ethynyl-6-fluoro-4-(8-fluoro-4-((1S,7S,8S)-8-fluoro-5-oxa-2-azabicyclo[5.1.0]octan-2-yl)-2-(((S)-1-methylpyrrolidin-2-yl)methoxy)pyrido[4,3-d]pyrimidin-7-yl)naphthalen-2-ol]", "IC50": "< 50"},
      {"smiles": "[2H]C([2H])(Oc1nc(N2CCOC[C@H]3[C@H](F)[C@H]32)c2cc(C(F)(F)F)c(-c3cccc4ccccc34)c(F)c2n1)[C@@]12CCCN1C[C@H](F)C2", "note": "[Example 415, (1S,7S,8S)-8-fluoro-2-(8-fluoro-2-(((2R,7aS)-2-fluorotetrahydro-1H-pyrrolizin-7a(5H)-yl)methoxy-d2)-7-(naphthalen-1-yl)-6-(trifluoromethyl)quinazolin-4-yl)-5-oxa-2-azabicyclo[5.1.0]octane]", "IC50": "500 to 10000"},
      {"smiles": "[2H]C([2H])(Oc1nc(N2CCCO[C@H]3[C@H](F)[C@H]32)c2cnc(-c3cc(N)cc4c(F)c(F)c(F)c(C#C)c34)c(F)c2n1)[C@@]12CCCN1C[C@H](F)C2", "note": "[Example 115, 5-ethynyl-6,7,8-trifluoro-4-(8-fluoro-4-((1R,7S,8R)-8-fluoro-2-oxa-6-azabicyclo[5.1.0]octan-6-yl)-2-(((2R,7aS)-2-fluorotetrahydro-1H-pyrrolizin-7a(5H)-yl)methoxy-d2)pyrido[4,3-d]pyrimidin-7-yl)naphthalen-2-amine]", "IC50": "< 50"},
      {"smiles": "C=C1CN2CCC[C@@]2(COc2nc(N3CCCC[C@H]4[C@H](F)[C@H]43)c3cnc(-c4cc(N)cc(Cl)c4C(F)(F)F)c(F)c3n2)C1", "note": "[Example 367, 3-chloro-5-(8-fluoro-4-((1S,7R,8S)-8-fluoro-2-azabicyclo[5.1.0]octan-2-yl)-2-(((S)-2-methylenetetrahydro-1H-pyrrolizin-7a(5H)-yl)methoxy)pyrido[4,3-d]pyrimidin-7-yl)-4-(trifluoromethyl)aniline]", "IC50": "< 50"},
      {"smiles": "Nc1cc(Cl)c(C(F)(F)F)c(-c2ncc3c(N4CCCC[C@@H]5[C@@H](F)[C@@H]54)nc(OC[C@@]45CCCN4C/C(=C\\F)C5)nc3c2F)c1", "note": "[Example 374, 3-chloro-5-(8-fluoro-4-((1R,7S,8R)-8-fluoro-2-azabicyclo[5.1.0]octan-2-yl)-2-(((S,Z)-2-(fluoromethylene)tetrahydro-1H-pyrrolizin-7a(5H)-yl)methoxy)pyrido[4,3-d]pyrimidin-7-yl)-4-(trifluoromethyl)aniline]", "IC50": "500 to 10000"}
    ]},
    {"tested_on": "KRAS G12V dependent lung adenocarcinoma cell line, NCI-H441", "experiment": "Cellular pERK (Thr202/Tyr204) FRET/HTRF assay", "format": "cell-based", "settings": "Homo sapiens, NCI-H441, pERK HTRF, NCI-H441 cells (KRAS G12V)", "method_in_brief": "as §1", "units": {"IC50": "nM"}, "values": [
      {"smiles": "[2H]C([2H])(Oc1nc(N2CCCO[C@@H]3[C@H](F)[C@@H]32)c2cnc(-c3cc(N)cc4cc(F)c(F)c(C#C)c34)c(F)c2n1)[C@@]12CCCN1C[C@H](F)C2", "note": "[Example 22, 5-Ethynyl-6,7-difluoro-4-(8-fluoro-4-((1S,7R,8R)-8-fluoro-2-oxa-6-azabicyclo[5.1.0]octan-6-yl)-2-(((2R,7aS)-2-fluorotetrahydro-1H-pyrrolizin-7a(5H)-yl)methoxy-d2)pyrido[4,3-d]pyrimidin-7-yl)naphthalen-2-amine]", "IC50": "50 to 500"},
      {"smiles": "[2H]C([2H])([2H])Oc1c(F)ccc2cccc(-c3ncc4c(N5CCCO[C@H]6[C@H](F)[C@H]65)nc(OC([2H])([2H])[C@@]56CCCN5C[C@H](F)C6)nc4c3F)c12", "note": "[Example 86, (1R,7S,8R)-8-Fluoro-6-(8-fluoro-7-(7-fluoro-8-(methoxy-d3)naphthalen-1-yl)-2-(((2R,7aS)-2-fluorotetrahydro-1H-pyrrolizin-7a(5H)-yl)methoxy-d2)pyrido[4,3-d]pyrimidin-4-yl)-2-oxa-6-azabicyclo[5.1.0]octane]", "IC50": "< 50"},
      {"smiles": "[2H]C([2H])(Oc1nc(N2CCCC[C@H]3[C@H](F)[C@H]32)c2cnc(-c3cncc4cc(F)c(F)c(OC)c34)c(F)c2n1)[C@@]12CCCN1C[C@H](F)C2", "note": "[Example 83, 7-(6,7-Difluoro-5-methoxyisoquinolin-4-yl)-8-fluoro-4-((1S,7R,8S)-8-fluoro-2-azabicyclo[5.1.0]octan-2-yl)-2-(((2R,7aS)-2-fluorotetrahydro-1H-pyrrolizin-7a(5H)-yl)methoxy-d2)pyrido[4,3-d]pyrimidine]", "IC50": "50 to 500"}
    ]},
    {"tested_on": "KRAS G12V dependent lung adenocarcinoma cell line, NCI-H441", "experiment": "Cellular pERK (Thr202/Tyr204) FRET/HTRF assay", "format": "cell-based", "settings": "cellular pERK (Thr202/Tyr204) HTRF, NCI-H441 cells", "method_in_brief": "as §1", "units": {"IC50": "nM"}, "values": [
      {"smiles": "[2H]C([2H])(Oc1nc(N2CCOC[C@@H]3[C@@H](Cl)[C@@H]32)c2cc(C(F)(F)F)c(-c3ccc(F)c4sc(N)c(C#N)c34)c(F)c2n1)[C@@]12CCCN1C[C@H](F)C2", "note": "(atropisomer, axis not shown; (aS)) [Example 419, 2-amino-4-((S)-4-((1R,7R,8R)-8-chloro-5-oxa-2-azabicyclo[5.1.0]octan-2-yl)-8-fluoro-2-(((2R,7aS)-2-fluorotetrahydro-1H-pyrrolizin-7a(5H)-yl)methoxy-d2)-6-(trifluoromethyl)quinazolin-7-yl)-7-fluorobenzo[b]thiophene-3-carbonitrile]", "IC50": "50 to 500"},
      {"smiles": "[2H]C([2H])(Oc1nc(N2CCOC[C@H]3[C@H](F)[C@H]32)c2cc(F)c(-c3ccc(F)c4sc(N)c(C#N)c34)c(F)c2n1)[C@@]12CCCN1C[C@H](F)C2", "note": "(atropisomer, axis not shown; (aS)) [Example 356, 2-amino-4-((R)-6,8-difluoro-4-((1S,7S,8S)-8-fluoro-5-oxa-2-azabicyclo[5.1.0]octan-2-yl)-2-(((2R,7aS)-2-fluorotetrahydro-1H-pyrrolizin-7a(5H)-yl)methoxy-d2)quinazolin-7-yl)-7-fluorobenzo[b]thiophene-3-carbonitrile]", "IC50": "500 to 10000"}
    ]},
    {"tested_on": "KRAS G12V dependent lung adenocarcinoma cell line, NCI-H441", "experiment": "Cellular pERK (Thr202/Tyr204) FRET/HTRF assay", "format": "cell-based", "settings": "cellular pERK HTRF, NCI-H441 (KRAS G12V) cells", "method_in_brief": "as §1", "units": {"IC50": "nM"}, "values": [
      {"smiles": "[2H]C([2H])(Oc1nc(N2CCOC[C@H]3[C@H](F)[C@H]32)c2cc(C#N)c(-c3ccc(F)c4sc(N)c(C#N)c34)c(C)c2n1)[C@@]12CCCN1C[C@H](F)C2", "note": "(atropisomer, axis not shown; (aS)) [Example 441, (S)-7-(2-amino-3-cyano-7-fluorobenzo[b]thiophen-4-yl)-4-((1S,7S,8S)-8-fluoro-5-oxa-2-azabicyclo[5.1.0]octan-2-yl)-2-(((2R,7aS)-2-fluorotetrahydro-1H-pyrrolizin-7a(5H)-yl)methoxy-d2)-8-methylquinazoline-6-carbonitrile]", "IC50": "500 to 10000"}
    ]}
  ]
}
